According to ChEMBL document CHEMBL1201862, “PubChem BioAssay data set” (2004):
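Five concentrations, 48 hours, 96-well plates. GI50 = concentration required for 50% inhibition of growth.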 Activity calls are given as the source filed them. No stated cut-off is given here; in the data, active = GI50 up to about 1.1 µM and inactive = higher.

Tests used:
Test in all cases: growth of human tumour cells (NCI), 48 h
BT-549 = system: BT-549
SK-MEL-2 = system: SK-MEL-2
Hs-578T = system: Hs-578T
DU-145 = system: DU-145
SN12C = system: SN12C
MDA-MB-231 = system: MDA-MB-231
KM12 = system: KM12
T47D = system: T47D
HOP-62 = system: HOP-62
K562 = system: K562
SR = system: SR
SK-MEL-28 = system: SK-MEL-28
MCF7 = system: MCF7
PC-3 = system: PC-3
IGROV-1 = system: IGROV-1
SNB-19 = system: SNB-19
HOP-18 = system: HOP-18
DLD-1 = system: DLD-1
SNB-78 = system: SNB-78

Structure (SMILES) | GI50 (BT-549) | GI50 (SK-MEL-2) | GI50 (Hs-578T) | GI50 (DU-145) | GI50 (SN12C) | GI50 (MDA-MB-231) | GI50 (KM12) | GI50 (T47D) | GI50 (HOP-62) | GI50 (K562) | GI50 (SR) | GI50 (SK-MEL-28) | GI50 (MCF7) | GI50 (PC-3) | GI50 (IGROV-1) | GI50 (SNB-19) | GI50 (HOP-18) | GI50 (DLD-1) | GI50 (SNB-78)
c1ccc2cc(-c3cc(-c4cc(-c5ccc6ccccc6c5)on4)no3)ccc2c1 | > 100 µM (inactive) | > 100 µM (inactive) | 53.6 µM (inactive) | > 100 µM (inactive) | > 100 µM (inactive) | > 100 µM (inactive) | > 100 µM (inactive) | > 100 µM (inactive) | > 100 µM (inactive) | > 100 µM (inactive) | 55.7 µM (inactive) | > 100 µM (inactive) | > 100 µM (inactive) | > 100 µM (inactive) | > 100 µM (inactive) | 15 µM (inactive) | – | – | –
NS(=O)(=O)c1ccc(NC2(C(=O)O)CCCC2)cc1 | > 100 µM (inactive) | > 100 µM (inactive) | > 100 µM (inactive) | > 100 µM (inactive) | > 100 µM (inactive) | > 100 µM (inactive) | > 100 µM (inactive) | > 100 µM (inactive) | > 100 µM (inactive) | > 100 µM (inactive) | > 100 µM (inactive) | > 100 µM (inactive) | > 100 µM (inactive) | > 100 µM (inactive) | > 100 µM (inactive) | > 100 µM (inactive) | – | – | –
Nc1ccc(S(=O)(=O)Nc2nc3ccccc3nc2N2CCCCCC2)cc1 | 7.23 µM (inactive) | 20 µM (inactive) | 37.2 µM (inactive) | 30.9 µM (inactive) | 11 µM (inactive) | 26.9 µM (inactive) | 30.9 µM (inactive) | 22.9 µM (inactive) | 20 µM (inactive) | 17.6 µM (inactive) | 12.5 µM (inactive) | 18.5 µM (inactive) | 38.9 µM (inactive) | 29.8 µM (inactive) | 34.4 µM (inactive) | 32.7 µM (inactive) | – | – | –
O=C1Nc2c(Cl)cccc2/C1=N/Nc1ccccc1[N+](=O)[O-] | 28 µM (inactive) | 70.6 µM (inactive) | 7.87 µM (inactive) | 16.4 µM (inactive) | 28.9 µM (inactive) | 4.97 µM (inactive) | 8.89 µM (inactive) | 22.2 µM (inactive) | 9.27 µM (inactive) | 36.9 µM (inactive) | 4.68 µM (inactive) | 35.1 µM (inactive) | 14.7 µM (inactive) | 31.9 µM (inactive) | 1.9 µM (inactive) | 44.3 µM (inactive) | – | – | –
CSC(=S)N/N=C(\C)c1cccc(C)n1 | 5.19 µM (inactive) | 3.48 µM (inactive) | 6.14 µM (inactive) | 0.845 µM (active) | 1.28 µM (inactive) | 1.85 µM (inactive) | 2.26 µM (inactive) | 2.46 µM (inactive) | 0.953 µM (active) | 0.042 µM (active) | 0.23 µM (active) | 1.46 µM (inactive) | 0.128 µM (active) | 0.265 µM (active) | 1.61 µM (inactive) | 4.04 µM (inactive) | – | – | –
Nc1ccc(-c2ncc3cc(-c4cccc(-c5cc6cnc(-c7ccc(N)cc7)nc6c6ccccc56)c4)c4ccccc4c3n2)cc1 | > 100 µM (inactive) | > 100 µM (inactive) | > 100 µM (inactive) | > 100 µM (inactive) | > 100 µM (inactive) | > 100 µM (inactive) | > 100 µM (inactive) | > 100 µM (inactive) | > 100 µM (inactive) | > 100 µM (inactive) | > 100 µM (inactive) | > 100 µM (inactive) | > 100 µM (inactive) | > 100 µM (inactive) | > 100 µM (inactive) | > 100 µM (inactive) | – | – | –
CCN1CCC(O)(c2ccc([N+](=O)[O-])cc2)C(C(=O)c2ccc([N+](=O)[O-])cc2)C1 (configuration not stated) | 16.9 µM (inactive) | 43.2 µM (inactive) | 23.2 µM (inactive) | 17.7 µM (inactive) | 21.1 µM (inactive) | 25.8 µM (inactive) | 17 µM (inactive) | 23.3 µM (inactive) | 77.3 µM (inactive) | 36.8 µM (inactive) | 33 µM (inactive) | 16.6 µM (inactive) | 15.4 µM (inactive) | 26.6 µM (inactive) | 18.2 µM (inactive) | 95.1 µM (inactive) | – | – | –
O=C(Nc1ccc(Cl)cc1Cl)c1c/c(=N\O)c2ccc(O)cc2o1 | – | – | – | – | > 100 µM (inactive) | – | > 100 µM (inactive) | – | > 100 µM (inactive) | > 100 µM (inactive) | > 100 µM (inactive) | > 100 µM (inactive) | – | – | > 100 µM (inactive) | > 100 µM (inactive) | > 100 µM (inactive) | > 100 µM (inactive) | > 100 µM (inactive)
C=CCCC(OCOCCOC)c1cc(C)c(O[Si](C)(C)C(C)(C)C)c(C)c1 (configuration not stated) | – | 15.8 µM (inactive) | – | – | 15.6 µM (inactive) | – | 13.5 µM (inactive) | – | 18.7 µM (inactive) | 8.05 µM (inactive) | – | 19.5 µM (inactive) | – | – | 19.9 µM (inactive) | 6.32 µM (inactive) | 28.6 µM (inactive) | – | > 100 µM (inactive)
C/C(=N\Nc1ccccc1)C(CN(C)C)C(c1ccccc1)c1c(O)c2ccccc2oc1=O (configuration not stated) | > 100 µM (inactive) | > 100 µM (inactive) | > 100 µM (inactive) | > 100 µM (inactive) | > 100 µM (inactive) | > 100 µM (inactive) | > 100 µM (inactive) | 89.3 µM (inactive) | > 100 µM (inactive) | > 100 µM (inactive) | 85.9 µM (inactive) | > 100 µM (inactive) | > 100 µM (inactive) | > 100 µM (inactive) | > 100 µM (inactive) | > 100 µM (inactive) | – | – | –
O=C(N/N=C(\c1nc2ccc(Cl)cc2nc1O)C(O)c1ccccc1Cl)c1ccncc1 (configuration not stated) | – | > 100 µM (inactive) | – | – | – | – | > 100 µM (inactive) | – | – | > 100 µM (inactive) | – | > 100 µM (inactive) | – | – | > 100 µM (inactive) | > 100 µM (inactive) | > 100 µM (inactive) | > 100 µM (inactive) | –
Cc1noc(/N=C2\C=C(O)C(=O)c3ccccc32)c1C | 1.05 µM (active) | 0.251 µM (active) | 2.24 µM (inactive) | 11.4 µM (inactive) | 0.918 µM (active) | 11.6 µM (inactive) | 0.254 µM (active) | 33.3 µM (inactive) | 2.18 µM (inactive) | 0.206 µM (active) | 18.7 µM (inactive) | 58.1 µM (inactive) | 0.495 µM (active) | 16.4 µM (inactive) | 10 µM (inactive) | 3.91 µM (inactive) | – | – | –
NC1=NS(=O)(=O)Nc2nc(-c3ccc([N+](=O)[O-])o3)[nH]c21 | – | 16.5 µM (inactive) | – | – | 17.7 µM (inactive) | – | 18.6 µM (inactive) | – | 18.5 µM (inactive) | 5.38 µM (inactive) | 4.73 µM (inactive) | 16 µM (inactive) | – | – | 17.2 µM (inactive) | 16.7 µM (inactive) | 16.3 µM (inactive) | 15.8 µM (inactive) | –
COC(=O)C(C#N)C1NC(=O)c2ccccc21 (configuration not stated) | – | – | – | – | > 100 µM (inactive) | – | > 100 µM (inactive) | – | > 100 µM (inactive) | > 100 µM (inactive) | > 100 µM (inactive) | > 100 µM (inactive) | – | – | > 100 µM (inactive) | > 100 µM (inactive) | > 100 µM (inactive) | > 100 µM (inactive) | > 100 µM (inactive)
Nc1n[n+](-c2ccccc2)no1 | – | – | – | – | 82.4 µM (inactive) | – | 10.1 µM (inactive) | – | 31.6 µM (inactive) | 4.85 µM (inactive) | – | – | – | – | 24.4 µM (inactive) | > 100 µM (inactive) | – | 5.7 µM (inactive) | > 100 µM (inactive)
COc1cc([N+](=O)[O-])ccc1NC(=O)C(F)(F)F | > 100 µM (inactive) | > 100 µM (inactive) | > 100 µM (inactive) | > 100 µM (inactive) | > 100 µM (inactive) | > 100 µM (inactive) | 97.9 µM (inactive) | 97.7 µM (inactive) | > 100 µM (inactive) | > 100 µM (inactive) | > 100 µM (inactive) | > 100 µM (inactive) | > 100 µM (inactive) | > 100 µM (inactive) | > 100 µM (inactive) | > 100 µM (inactive) | – | – | –
COc1cc([N+](=O)[O-])c(S(=O)(=O)O)cc1N | > 100 µM (inactive) | > 100 µM (inactive) | > 100 µM (inactive) | > 100 µM (inactive) | > 100 µM (inactive) | > 100 µM (inactive) | > 100 µM (inactive) | > 100 µM (inactive) | > 100 µM (inactive) | > 100 µM (inactive) | > 100 µM (inactive) | > 100 µM (inactive) | > 100 µM (inactive) | > 100 µM (inactive) | > 100 µM (inactive) | > 100 µM (inactive) | – | – | –
C1=CC=C2NCCSCC/N=C3/C=CC=CC=C3NCCSCC/N=C\2C=C1 | – | > 100 µM (inactive) | – | – | > 100 µM (inactive) | – | > 100 µM (inactive) | – | > 100 µM (inactive) | > 100 µM (inactive) | – | > 100 µM (inactive) | – | – | > 100 µM (inactive) | > 100 µM (inactive) | > 100 µM (inactive) | > 100 µM (inactive) | > 100 µM (inactive)
C=C1C(OC(C)=O)CC(OC(C)=O)C2(C)C(OC(C)=O)C(OC(C)=O)C3=C(C)C(OC(=O)/C=C/c4ccccc4)CC(C(OC(C)=O)C12)C3(C)C (configuration not stated) | – | 55.6 µM (inactive) | – | – | > 100 µM (inactive) | – | > 100 µM (inactive) | – | 31 µM (inactive) | > 100 µM (inactive) | > 100 µM (inactive) | – | – | – | > 100 µM (inactive) | 51.8 µM (inactive) | 51.1 µM (inactive) | > 100 µM (inactive) | 38.8 µM (inactive)
CN(C)CCC1(C2=CCCC2)CC/C(=C\c2ccccc2Cl)C1=O (configuration not stated) | – | 13.5 µM (inactive) | – | – | 13.4 µM (inactive) | – | 12.9 µM (inactive) | – | – | 3.75 µM (inactive) | – | 13.1 µM (inactive) | – | – | 19.8 µM (inactive) | 14.3 µM (inactive) | 12.4 µM (inactive) | 15.2 µM (inactive) | 12.4 µM (inactive)
